# Source: patent US7618990B2, “Oxazolidone derivatives as PR modulators” (Wyeth, priority 2006, dated 2009)
# Tested on: not given
# Experiment: not given
# Conditions: not given
row,SMILES,melting point [°C]
1,"O=C1OC[C@@H](Cc2ccccc2)N1c1nc(-c2ccc(Br)cc2)cs1 [Example 36, (4R)-4-Benzyl-3-[4-(4-bromophenyl)-1,3-thiazol-2-yl]-1,3-oxazolidin-2-one]",177 to 179
2,"CC(C)C[C@H]1COC(=O)N1c1nc(-c2ccc(Br)cc2)cs1 [Example 37, (4S)-3-[4-(4-Bromophenyl)-1,3-thiazol-2-yl]-4-isobutyl-1,3-oxazolidin-2-one]",144 to 146
3,"CC(C)C1COC(=O)N1c1nc(-c2ccc(Br)cc2)cs1 (centres unmarked) [Example 38, 3-[4-(4-Bromophenyl)-1,3-thiazol-2-yl]-4-isopropyl-1,3-oxazolidin-2-one]",174 to 176
4,"CCCC1COC(=O)N1c1nc(-c2ccc(C#N)cc2)cs1 (centres unmarked) [Example 40, 4-[2-(2-Oxo-4-propyl-1,3-oxazolidin-3-yl)-1,3-thiazol-4-yl]benzonitrile]",132 to 134
5,"CC1CN(c2nc(-c3ccc(C#N)cc3)cs2)C(=O)O1 (centres unmarked) [Example 41, 4-[2-(5-Methyl-2-oxo-1,3-oxazolidin-3-yl)-1,3-thiazol-4-yl]benzonitrile]",214 to 216
6,"CCC1CN(c2nc(-c3ccc(C#N)cc3)cs2)C(=O)O1 (centres unmarked) [Example 42, 4-[2-(5-Ethyl-2-oxo-1,3-oxazolidin-3-yl)-1,3-thiazol-4-yl]benzonitrile]",168 to 170

# Tested on: alkaline phosphatase activity in T47D cells
# Experiment: Effects of progestins and antiprogestins on alkaline phosphatase activity in T47D cells (antagonist mode)
# Type: cell-based
# Conditions: Homo sapiens, in the presence of 1 nM progesterone, 24 h, read-out: T47D Alkaline Phosphatase Activity IC50 (nM) or % inhibition
row,IC50 [nM],SMILES
1,24.8,"CC1(C)COC(=O)N1c1nc(-c2ccc(Br)cc2F)cs1 [Example 78, 3-[4-(4-Bromo-2-fluorophenyl)-1,3-thiazol-2-yl]-4,4-dimethyl-1,3-oxazolidin-2-one]"
2,31.6,"CC1(C)COC(=O)N1c1nc(-c2ccc(C#N)cc2F)cs1 [Example 79, 4-[2-(4,4-Dimethyl-2-oxo-1,3-oxazolidin-3-yl)-1,3-thiazol-4-yl]-3-fluorobenzonitrile]"
3,8.6,"CC1(C)COC(=O)N1c1nc(-c2ccc([N+](=O)[O-])cc2)cs1 [Example 80, 4,4-Dimethyl-3-[4-(4-nitrophenyl)-1,3-thiazol-2-yl]-1,3-oxazolidin-2-one]"
4,2.3,"CC1(C)COC(=O)N1c1nc(-c2ccc(C#N)c(F)c2)cs1 [Example 81, 4-[2-(4,4-Dimethyl-2-oxo-1,3-oxazolidin-3-yl)-1,3-thiazol-4-yl]-2-fluorobenzonitrile]"

# Second part, the compound before the results:
row,SMILES,IC50 [nM]
1,"O=C1OCC2(CCC2)N1c1nc(-c2ccc(Br)cc2)cs1 [Example 26, 5-[4-(4-Bromophenyl)-1,3-thiazol-2-yl]-7-oxa-5-azaspiro[3.4]octan-6-one]",49.4
2,"O=C1OC[C@@H](Cc2ccccc2)N1c1nc(-c2ccc(Br)cc2)cs1 [Example 36, (4R)-4-Benzyl-3-[4-(4-bromophenyl)-1,3-thiazol-2-yl]-1,3-oxazolidin-2-one]",346
3,"CC(C)C[C@H]1COC(=O)N1c1nc(-c2ccc(Br)cc2)cs1 [Example 37, (4S)-3-[4-(4-Bromophenyl)-1,3-thiazol-2-yl]-4-isobutyl-1,3-oxazolidin-2-one]",359
4,"CC(C)C1COC(=O)N1c1nc(-c2ccc(Br)cc2)cs1 (centres unmarked) [Example 38, 3-[4-(4-Bromophenyl)-1,3-thiazol-2-yl]-4-isopropyl-1,3-oxazolidin-2-one]",75.6
5,"CCCC1COC(=O)N1c1nc(-c2ccc(C#N)cc2)cs1 (centres unmarked) [Example 40, 4-[2-(2-Oxo-4-propyl-1,3-oxazolidin-3-yl)-1,3-thiazol-4-yl]benzonitrile]",9.9
6,"CC1CN(c2nc(-c3ccc(C#N)cc3)cs2)C(=O)O1 (centres unmarked) [Example 41, 4-[2-(5-Methyl-2-oxo-1,3-oxazolidin-3-yl)-1,3-thiazol-4-yl]benzonitrile]",48.3
7,"CCC1CN(c2nc(-c3ccc(C#N)cc3)cs2)C(=O)O1 (centres unmarked) [Example 42, 4-[2-(5-Ethyl-2-oxo-1,3-oxazolidin-3-yl)-1,3-thiazol-4-yl]benzonitrile]",117
8,"O=C1OC[C@@H](CCl)N1c1nc(-c2ccc(Br)cc2)cs1 [Example 72, (4S)-3-[4-(4-Bromophenyl)-1,3-thiazol-2-yl]-4-(chloromethyl)-1,3-oxazolidin-2-one]",5.4
9,"CC1(C)OCC(=O)N1c1nc(-c2ccc(Br)cc2)cs1 [Example 77, 3-[4-(4-Bromophenyl)-1,3-thiazol-2-yl]-2,2-dimethyl-1,3-oxazolidin-4-one]",372

# Biological target: T1, progesterone receptor (PR) (Homo sapiens, UniProt P06401)
# T1 construct: in live, intact (whole) cells using the human breast carcinoma T47D cell line; endogenous in cells; host or cells: T47D human breast carcinoma cells
# T1 sequence (P06401 1-933): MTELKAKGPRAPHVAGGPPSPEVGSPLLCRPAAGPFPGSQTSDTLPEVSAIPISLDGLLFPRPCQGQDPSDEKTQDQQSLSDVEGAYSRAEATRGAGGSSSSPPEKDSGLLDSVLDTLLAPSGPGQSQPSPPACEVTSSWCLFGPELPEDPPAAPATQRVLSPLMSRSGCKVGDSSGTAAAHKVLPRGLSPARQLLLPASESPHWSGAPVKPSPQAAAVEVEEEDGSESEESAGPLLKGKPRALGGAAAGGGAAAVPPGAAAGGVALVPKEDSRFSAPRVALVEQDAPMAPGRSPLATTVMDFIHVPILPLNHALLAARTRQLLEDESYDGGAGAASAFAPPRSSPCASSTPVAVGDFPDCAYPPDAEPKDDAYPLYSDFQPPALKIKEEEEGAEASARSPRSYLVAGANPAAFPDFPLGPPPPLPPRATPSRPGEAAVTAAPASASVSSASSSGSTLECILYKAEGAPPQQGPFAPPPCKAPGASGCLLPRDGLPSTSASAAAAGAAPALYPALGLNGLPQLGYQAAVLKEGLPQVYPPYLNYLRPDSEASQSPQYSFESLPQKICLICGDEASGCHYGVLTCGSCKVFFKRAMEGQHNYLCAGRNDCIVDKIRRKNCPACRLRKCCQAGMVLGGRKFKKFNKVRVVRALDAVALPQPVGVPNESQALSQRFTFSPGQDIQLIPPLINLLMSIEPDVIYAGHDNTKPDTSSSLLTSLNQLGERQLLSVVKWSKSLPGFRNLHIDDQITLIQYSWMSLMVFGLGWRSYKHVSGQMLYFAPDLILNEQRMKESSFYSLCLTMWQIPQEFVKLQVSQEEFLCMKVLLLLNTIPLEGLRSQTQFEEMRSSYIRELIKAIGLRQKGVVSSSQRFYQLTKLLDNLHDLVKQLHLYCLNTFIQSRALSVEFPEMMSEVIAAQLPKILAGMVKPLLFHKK
# Experiment: Progesterone receptor whole cell competition binding assay using T47D cells
# Conditions: intact T47D cells, 3 nM 3H-progesterone, 3 h at 37° C.
# Experimental: (2) Progesterone Receptor Whole Cell Competition Binding Assay Using T47D Cells
# PURPOSE: To evaluate the progesterone receptor (PR) binding activity of progestins or antiprogestins in live, intact (whole) cells using the human breast carcinoma T47D cell line and ^3H-progesterone as the labeled ligand.
# Culture Medium: • 5% RC: phenol red free DMEM:F12 (1:1) (GIBCO, BRL) supplemented with 5% (v/v) charcoal stripped fetal bovine serum (not heat-inactivated), 100 U/mL penicillin, 100 μg/mL streptomycin, and 2 mM the GlutaMax™ reagent (GIBCO, BRL). • 10% RC: Same as above supplemented with 10% (v/v) FBS. • ^3H-Progesterone: Perkin Elmer Life Science, cat# NET-381 (typically around 102 Ci/mmol)
# T47D cells were maintained in 10% RC media at 37° C. in a 5% CO2/humidified atmosphere and were split twice weekly for proper response. Cells were plated in 10% RC the day before binding assay at 50,000 cells per well in the white, clear bottom plates purchased through VWR or Perkin Elmer.
# Cells plated the day prior to the assay in white clear bottom plates were used. A master compound plate was set up containing control and test compounds at 20× final desired concentration for the competition binding. A typical dose range of 20× concentrations were (in nM); 200,000; 20,000; 6000; 2000; 600; 200; 20; and 2. Final concentrations were (in nM); 10,000; 1000; 300; 100; 30; 10; 1; 0.1. Control compounds were typically run 10-fold lower than this and include a 0, or vehicle, control well. A stock of 60 nM ^3H-progesterone (20×) were also prepared at a volume needed of 10 μL per well.
# Media on cells were replaced with 180 μL of 5% RC. Ten microliters (10 μL) of 60 nM ^3H-progesterone (for final concentration of 3 nM) was added immediately, followed by 10 μL of 20× test or control compounds. Compounds were incubated for 3 h at 37° C. (A time course study found no difference between 2 and 4 h incubation.)
# Following incubation, media was carefully removed and cells were washed 3× with 200 μL 5% RC each wash. Fifty microliters of liquid scintillation cocktail was added and the plates were shaken vigorously for a minimum of 15 min. Plates were read on the Wallac Microbeta® 1450 plate reader.
# Square root-transformed data were used for analysis of variance and calculation of IC50. SAS software (SAS Institute, Inc.) was used for all the statistical analysis.
# Progesterone was used as a reference progestin and RU486 as a reference antiprogestin.
row,Ki [nM],SMILES
1,45.6,"CC1(C)COC(=O)N1c1nc(-c2ccc(Br)cc2F)cs1 [Example 78, 3-[4-(4-Bromo-2-fluorophenyl)-1,3-thiazol-2-yl]-4,4-dimethyl-1,3-oxazolidin-2-one]"
2,170,"CC1(C)COC(=O)N1c1nc(-c2ccc(C#N)cc2F)cs1 [Example 79, 4-[2-(4,4-Dimethyl-2-oxo-1,3-oxazolidin-3-yl)-1,3-thiazol-4-yl]-3-fluorobenzonitrile]"
3,34.5,"CC1(C)COC(=O)N1c1nc(-c2ccc([N+](=O)[O-])cc2)cs1 [Example 80, 4,4-Dimethyl-3-[4-(4-nitrophenyl)-1,3-thiazol-2-yl]-1,3-oxazolidin-2-one]"
4,~2000,"CC1(C)COC(=O)N1c1nc(-c2ccc(C#N)c(F)c2)cs1 [Example 81, 4-[2-(4,4-Dimethyl-2-oxo-1,3-oxazolidin-3-yl)-1,3-thiazol-4-yl]-2-fluorobenzonitrile]"

# Continued, compound first:
row,SMILES,Ki [nM]
1,"O=C1OCC2(CCC2)N1c1nc(-c2ccc(Br)cc2)cs1 [Example 26, 5-[4-(4-Bromophenyl)-1,3-thiazol-2-yl]-7-oxa-5-azaspiro[3.4]octan-6-one]",91.8
2,"O=C1OC[C@@H](Cc2ccccc2)N1c1nc(-c2ccc(Br)cc2)cs1 [Example 36, (4R)-4-Benzyl-3-[4-(4-bromophenyl)-1,3-thiazol-2-yl]-1,3-oxazolidin-2-one]",968
3,"CC(C)C[C@H]1COC(=O)N1c1nc(-c2ccc(Br)cc2)cs1 [Example 37, (4S)-3-[4-(4-Bromophenyl)-1,3-thiazol-2-yl]-4-isobutyl-1,3-oxazolidin-2-one]",566
4,"CC(C)C1COC(=O)N1c1nc(-c2ccc(Br)cc2)cs1 (centres unmarked) [Example 38, 3-[4-(4-Bromophenyl)-1,3-thiazol-2-yl]-4-isopropyl-1,3-oxazolidin-2-one]",108
5,"CCCC1COC(=O)N1c1nc(-c2ccc(C#N)cc2)cs1 (centres unmarked) [Example 40, 4-[2-(2-Oxo-4-propyl-1,3-oxazolidin-3-yl)-1,3-thiazol-4-yl]benzonitrile]",42
6,"CC1CN(c2nc(-c3ccc(C#N)cc3)cs2)C(=O)O1 (centres unmarked) [Example 41, 4-[2-(5-Methyl-2-oxo-1,3-oxazolidin-3-yl)-1,3-thiazol-4-yl]benzonitrile]",284
7,"CCC1CN(c2nc(-c3ccc(C#N)cc3)cs2)C(=O)O1 (centres unmarked) [Example 42, 4-[2-(5-Ethyl-2-oxo-1,3-oxazolidin-3-yl)-1,3-thiazol-4-yl]benzonitrile]",700
8,"O=C1OC[C@@H](CCl)N1c1nc(-c2ccc(Br)cc2)cs1 [Example 72, (4S)-3-[4-(4-Bromophenyl)-1,3-thiazol-2-yl]-4-(chloromethyl)-1,3-oxazolidin-2-one]",20
9,"CC1(C)OCC(=O)N1c1nc(-c2ccc(Br)cc2)cs1 [Example 77, 3-[4-(4-Bromophenyl)-1,3-thiazol-2-yl]-2,2-dimethyl-1,3-oxazolidin-4-one]",584
